The values that follow come from US20170144969A1, “ANT[…], METHOD FOR PRODUCTION AND USES THEREOF” (priority 2014, published 2017).

In series [1] the test system is vancomycin resistant Enterococcus faecium (VRE) (ATCC 51559). The series can be described thus: Minimum Inhibitory Concentration, micro-dilution broth. In kind it is cell-based. As to conditions: 24 h, 37° C. (In general: Broth dilution looks for growth in wells or tubes with falling amounts of substance.)
Series [2] has as its system E. coli (MTCC 443). The series is described as above. In kind it is cell-based. Particulars: 24 h, 37° C.
Series [3] relates to Klebsiella pneumoniae (ATCC 700603). Described as above. Type of series: cell-based. Particulars: 24 h, 37° C.
Series [4] concerns S. aureus (MTCC 737). The description is as above. In kind it is cell-based, Staphylococcus aureus. Particulars: 24 h, 37° C.
The subject of series [5] is Enterococcus faecium (ATCC 19634). The series is described as above. Type of series: cell-based. As to conditions: 24 h, 37° C.; read-out: Minimum Inhibitory Concentration E. faceium.
Series [6] relates to MRSA (ATCC 33591). The series is described as above. As to conditions: 24 h, 37° C. In kind it is cell-based, methicillin-resistant S. aureus.
For series [7], the system named is human Red Blood Cells. The series can be described thus: Haemolytic activity. Particulars: for HC50: human RBCs, 1 h at 37° C.; for hemolysis: at 1000 µM concentration.

The structures appear in SMILES notation. Some results are limits rather than exact numbers.

Take `CCCCCCCCCC(=O)N(CCCNC(=O)[C@@H](N)CCCCN)CCCNC(=O)[C@@H](N)CCCCN.O=C(O)C(F)(F)F.O=C(O)C(F)(F)F` [Compound 9, N,N-bis-[{3-(^LLys)amino}propyl]decanamide bis(trifluoroacetate)]: the MIC in series [1] came out at 58 µM; in series [2], 40 µM; in series [4], 53 µM; in series [5], 60 µM. Further, the “Minimum Inhibitory Concentration K. pneumonie” value in series [3] came out at 98 µM. The “Minimum Inhibitory Concentration MRSA” value in series [6] was determined as 65 µM. The HC50 in series [7] (Table 3) is recorded as >1000. Also, the hemolysis result in series [7] is recorded as “did not show any hemolytic”.
As to `CCCCCCCCCCCC(=O)N(CCCNC(=O)[C@@H](N)CCCCN)CCCNC(=O)[C@@H](N)CCCCN.O=C(O)C(F)(F)F.O=C(O)C(F)(F)F` [Compound 10, N,N-bis-[{3-(^LLys)amino}propyl]dodecanamide bis(trifluoroacetate)], the MIC in series [1] was found to be 30 µM; in series [2], 14 µM; in series [4], 37 µM; in series [5] it was 32 µM. In addition, in series [3], the “Minimum Inhibitory Concentration K. pneumonie” value came out at 40 µM. Moreover, the “Minimum Inhibitory Concentration MRSA” value in series [6] worked out at 45 µM. Further, the HC50 in series [7] (Table 3) is >1000. Further, the hemolysis result in series [7] is “did not show any hemolytic”.
As for `CCCCCCCCCCCCCC(=O)N(CCCNC(=O)[C@@H](N)CCCCN)CCCNC(=O)[C@@H](N)CCCCN.O=C(O)C(F)(F)F.O=C(O)C(F)(F)F` [Compound 11, N,N-bis-[{3-(^LLys)amino}propyl]tetradecanamide bis(trifluoroacetate)], the MIC in series [1] amounted to 1.5 µM; in series [2], 5.9 µM; in series [4], 7.8 µM; in series [5], 2 µM. Moreover, the “Minimum Inhibitory Concentration K. pneumonie” value in series [3] worked out at 9.3 µM. Moreover, the “Minimum Inhibitory Concentration MRSA” value in series [6] is 14 µM. This compound also came in with an HC50 in series [7] (Table 3) of 588.
Turning to `CCCCCCCCCCCC(=O)N(CCCNC(=O)CN)CCCNC(=O)CN.O=C(O)C(F)(F)F.O=C(O)C(F)(F)F` [Compound 42, N,N-bis-[{3-(Gly)amido}propyl]dodecanamide bis(trifluoroacetate)], the MIC in series [1] is recorded as 112 µM; in series [2] it was 340 µM; in series [4], 67 µM; in series [5] it was 86 µM. Besides, the “Minimum Inhibitory Concentration K. pneumonie” value in series [3] is >340 µM. In series [6], the “Minimum Inhibitory Concentration MRSA” value stood at 61 µM. The HC50 in series [7] (Table 6) worked out at 400 µM.
Regarding `CCCCCCCCCCCCCC(=O)N(CCCNC(=O)CN)CCCNC(=O)CN.O=C(O)C(F)(F)F.O=C(O)C(F)(F)F` [Compound 43, N,N-bis-[{3-(Gly)amido}propyl]tetradecanamide bis(trifluoroacetate)], the MIC is 13 µM in series [1], 16 µM in series [2], 12.5 µM in series [4] and 8.8 µM in series [5]. Further, in series [3], the “Minimum Inhibitory Concentration K. pneumonie” value is >365 µM. Further, the “Minimum Inhibitory Concentration MRSA” value in series [6] is 10.8 µM. Also, the HC50 in series [7] (Table 6) is 157 µM.
On to `CCCCCCCCCCCCCCCC(=O)N(CCCNC(=O)CN)CCCNC(=O)CN.O=C(O)C(F)(F)F.O=C(O)C(F)(F)F` [Compound 44, N,N-bis-[{3-(Gly)amido}propyl]hexadecanamide bis(trifluoroacetate)], for which the MIC in series [1] is on record as 3.3 µM; in series [2], 5.9 µM; in series [4], 6.5 µM; in series [5], 4 µM. Moreover, in series [3], the “Minimum Inhibitory Concentration K. pneumonie” value was >365 µM. The “Minimum Inhibitory Concentration MRSA” value in series [6] stood at 10 µM. In series [7] (Table 6), this compound had an HC50 of 90 µM.
Regarding `CCCCCCCCCCCC(=O)N(CCCNC(=O)[C@H](C)N)CCCNC(=O)[C@H](C)N.O=C(O)C(F)(F)F.O=C(O)C(F)(F)F` [Compound 45, N,N-bis-[{3-(^LAla)amido}propyl]dodecanamide bis(trifluoroacetate)], the MIC in series [1] stood at 82 µM; in series [2], 282 µM; in series [4] it was 95 µM; in series [5], 73 µM. For the same compound, the “Minimum Inhibitory Concentration K. pneumonie” value in series [3] was >365 µM. Also, the “Minimum Inhibitory Concentration MRSA” value in series [6] turned out to be 133 µM. In series [7] (Table 6), this compound had an HC50 of 562 µM.
Regarding `CCCCCCCCCCCCCC(=O)N(CCCNC(=O)[C@H](C)N)CCCNC(=O)[C@H](C)N.O=C(O)C(F)(F)F.O=C(O)C(F)(F)F` [Compound 46, N,N-bis-[{3-(^LAla)amido}propyl]tetradecanamide bis(trifluoroacetate)], the MIC in series [1] is recorded as 7.6 µM; in series [2], 17 µM; in series [4], 19 µM; in series [5] it was 9 µM. Also, in series [3], the “Minimum Inhibitory Concentration K. pneumonie” value was >360 µM. Moreover, in series [6], the “Minimum Inhibitory Concentration MRSA” value was 17 µM. In series [7] (Table 6), this compound registered an HC50 of 93 µM.
`CCCCCCCCCCCCCCCC(=O)N(CCCNC(=O)[C@H](C)N)CCCNC(=O)[C@H](C)N.O=C(O)C(F)(F)F.O=C(O)C(F)(F)F` [Compound 47, N,N-bis-[{3-(^LAla)amido}propyl]hexadecanamide bis(trifluoroacetate)]: the MIC in series [1] was 3 µM; in series [2] it was 4 µM; in series [4], 5.6 µM; in series [5] it was 3 µM. Also, the “Minimum Inhibitory Concentration K. pneumonie” value in series [3] stood at 12 µM. Moreover, in series [6], the “Minimum Inhibitory Concentration MRSA” value came to 6 µM. Moreover, the HC50 in series [7] (Table 6) is 68 µM.
In the case of `CCCCCCCCCCCC(=O)N(CCCNC(=O)[C@@H](N)C(C)C)CCCNC(=O)[C@@H](N)C(C)C.O=C(O)C(F)(F)F.O=C(O)C(F)(F)F` [Compound 48, N,N-bis-[{3-(Val)amido}propyl]dodecanamide bis(trifluoroacetate)], the MIC in series [1] is given as 25 µM; in series [2], 18 µM; in series [4], 28 µM; in series [5], 25 µM. In series [3], the “Minimum Inhibitory Concentration K. pneumonie” value was 58 µM. The “Minimum Inhibitory Concentration MRSA” value in series [6] amounted to 40 µM. In series [7] (Table 6), the HC50 amounted to 264 µM.
As for `CCCCCCCCCCCCCC(=O)N(CCCNC(=O)[C@@H](N)C(C)C)CCCNC(=O)[C@@H](N)C(C)C.O=C(O)C(F)(F)F.O=C(O)C(F)(F)F` [Compound 49, N,N-bis-[{3-(^LVal)amido}propyl]tetradecanamide bis(trifluoroacetate)], the MIC in series [1] is recorded as 4 µM; in series [2] it was 7 µM; in series [4] it was 4 µM; in series [5], 3.6 µM. The “Minimum Inhibitory Concentration K. pneumonie” value in series [3] came to 7.3 µM. In addition, the “Minimum Inhibitory Concentration MRSA” value in series [6] was 3.4 µM. In addition, in series [7] (Table 6), the HC50 is 134 µM.
With `CCCCCCCCCCCCCCCC(=O)N(CCCNC(=O)[C@@H](N)C(C)C)CCCNC(=O)[C@@H](N)C(C)C.O=C(O)C(F)(F)F.O=C(O)C(F)(F)F` [Compound 50, N,N-bis-[{3-(^LVal)amido}propyl]hexadecanamide bis(trifluoroacetate)], the MIC is 1.4 µM in series [1], 10 µM in series [2], 2.7 µM in series [4] and 1.7 µM in series [5]. The “Minimum Inhibitory Concentration K. pneumonie” value in series [3] was >314 µM. Moreover, in series [6], the “Minimum Inhibitory Concentration MRSA” value was 1.9 µM. In series [7] (Table 6), this compound showed an HC50 of 86 µM.
Consider `CCCCCCCCCCCC(=O)N(CCCNC(=O)[C@@H](N)[C@@H](C)CC)CCCNC(=O)[C@@H](N)[C@@H](C)CC.O=C(O)C(F)(F)F.O=C(O)C(F)(F)F` [Compound 51, N,N-bis-[{3-(^LIle)amido}propyl]dodecanamide bis(trifluoroacetate)], for which the MIC in series [1] is given as 11.3 µM; in series [2], 11 µM; in series [4] it was 8 µM; in series [5] it was 8 µM. Moreover, in series [3], the “Minimum Inhibitory Concentration K. pneumonie” value was found to be 28 µM. Also, the “Minimum Inhibitory Concentration MRSA” value in series [6] was 5.7 µM. The compound also gave an HC50 in series [7] (Table 6) of 95 µM.
Take `CCCCCCCCCCCCCC(=O)N(CCCNC(=O)[C@@H](N)[C@@H](C)CC)CCCNC(=O)[C@@H](N)[C@@H](C)CC.O=C(O)C(F)(F)F.O=C(O)C(F)(F)F` [Compound 52, N,N-bis-[{3-(^LIle)amido}propyl]tetradecanamide bis(trifluoroacetate)]: the MIC in series [1] was found to be 2.6 µM; in series [2] it was 5 µM; in series [4], 3 µM; in series [5] it was 4 µM. For the same compound, the “Minimum Inhibitory Concentration K. pneumonie” value in series [3] came out at 300 µM. For the same compound, the “Minimum Inhibitory Concentration MRSA” value in series [6] was 2.9 µM. This compound also returned an HC50 in series [7] (Table 6) of 64 µM.
Regarding `CCCCCCCCCCCC(=O)N(CCCNC(=O)[C@@H](N)CC(C)C)CCCNC(=O)[C@@H](N)CC(C)C.O=C(O)C(F)(F)F.O=C(O)C(F)(F)F` [Compound 54, N,N-bis-[{3-(^LLeu)amido}propyl]dodecanamide bis(trifluoroacetate)], the MIC in series [1] is given as 5 µM; in series [2], 8.8 µM; in series [4], 5.8 µM; in series [5], 8.6 µM. Besides, the “Minimum Inhibitory Concentration K. pneumonie” value in series [3] was found to be 18 µM. The “Minimum Inhibitory Concentration MRSA” value in series [6] stood at 8.9 µM. The same compound showed an HC50 in series [7] (Table 6) of 305 µM.
Turning to `CCCCCCCCCCCCCCCC(=O)N(CCCNC(=O)[C@@H](N)CC(C)C)CCCNC(=O)[C@@H](N)CC(C)C.O=C(O)C(F)(F)F.O=C(O)C(F)(F)F` [Compound 56, N,N-bis-[{3-(^LLeu)amido}propyl]hexadecanamide bis(trifluoroacetate)], the MIC in series [1] turned out to be 3.4 µM; in series [2] it was 20 µM; in series [4], 3.8 µM; in series [5], 3.4 µM. Further, the “Minimum Inhibitory Concentration K. pneumonie” value in series [3] came to 280 µM. For the same compound, in series [6], the “Minimum Inhibitory Concentration MRSA” value was 2.9 µM. Moreover, the HC50 in series [7] (Table 6) amounted to 95 µM.
